In experiment [1] the test system is uterus of ovariectomized (OVX) rats. The experiment can be described thus: Uterine weight in ovariectomized rats (post-menopausal model, agonist activity). The experiment is classed as in vivo, Sprague Dawley rats. The method, then:
(§1) In the examples illustrating the methods, a post-menopausal model was used in which effects of different treatments upon circulating lipids were determined.
(§2) Seventy-five day old female Sprague Dawley rats (weight range of 200 to 225g) were obtained from Charles River Laboratories (Portage, Mich.). The animals were either bilaterally ovariectomized (OVX) or exposed to a Sham surgical procedure at Charles River Laboratories, and then shipped after one week. Upon arrival, they were housed in metal hanging cages in groups of 3 or 4 per cage and had ad libitum access to food calcium content approximately 0.5%) and water for one week. Room temperature was maintained at 22.2°±1.7° C. with a minimum relative humidity of 40%. The photoperiod in the room was 12 hours light and 12 hours dark.
(§3) Dosing Regimen Tissue Collection. After a one week acclimation period (therefore, two weeks post-OVX) daily dosing with test compound was initiated. […] Animals were dosed daily for 4 days. Following the dosing regimen, animals were weighed and anesthetized with a ketamine: Xylazine (2:1, V:V) mixture and a blood sample was collected by cardiac puncture. The animals were then sacrificed by asphyxiation with CO2, the uterus was removed through a midline incision, and a wet uterine weight was determined.

Experiment [2] deals with Uterine Eosinophil Peroxidase (EPO). The experiment can be described thus: Uterine Eosinophil Peroxidase (EPO) Assay in ovariectomized rats. Format: in vivo, Sprague Dawley rats. Also on record: key: max velocity of A450 increase over a 15 s interval. The following applies: oral, daily for 4 days, OVX rats. The method, then:
as §1, §2, §3
Uterine Eosinophil Peroxidase (EPO) Assay. Uteri were kept at 4° C. until time of enzymatic analysis. The uteri were then homogenized in 50 volumes of 50 mM Tris buffer (pH-8.0) containing 0.005% Triton X-100. Upon addition of 0.01% hydrogen peroxide and 10 mM O-phenylenediamine (final concentrations) in Tris buffer, increase in absorbance was monitored for one minute at 450 nm. The presence of eosonophils in the uterus is an indication of estrogenic activity of a compound. The maximal velocity of a 15 second interval was determined over the initial, linear portion of the reaction curve.

For experiment [3], the system named is Serum Cholesterol. The experiment can be described thus: Serum cholesterol analysis in ovariectomized rats. The experiment is classed as in vivo, Sprague Dawley rats. The following applies: OVX rats. The method, then: as §1, §2, §3
Cholesterol Analysis. Blood samples were allowed to clot at room temperature for 2 hours, and serum was obtained following centrifugation for 10 minutes at 3000 rpm. Serum cholesterol was determined using a Boehringer Mannheim Diagnostics high performance cholesterol assay. Briefly the cholesterol was oxidized to cholest-4-en-3-one and hydrogen peroxide. The hydrogen peroxide was then reacted with phenol and 4-aminophenazone in the presence of peroxidase to produce a p-quinone imine dye, which was read spectrophotemetrically at 500 nm. Cholesterol concentration was then calculated against a standard curve. The entire assay was automated using a Biomek Automated Workstation.

Experiment [4] has as its system femur density of ovariectomized rats. The experiment can be described thus: Osteoporosis Test (bone density of ovariectomized rats). The experiment is classed as in vivo, Sprague Dawley rats. The note with it: OVX rats, daily for 35 days. The source says:
Following the General Preparation Procedure, infra, the rats or treated daily for 35 days (6 rats per treatment group) and sacrificed by carbon dioxide asphyxiation on the 36th day. The 35 day time period is sufficient to allow maximal reduction in bone density, measured as described herein. At the time of sacrifice, the uteri are removed, dissected free of extraneous tissue, and the fluid contents are expelled before determination of wet weight in order to confirm estrogen deficiency associated with complete ovariectomy. […] The uteri are then placed in 10% neutral buffered formalin to allow for subsequent histological analysis. The right femurs are excised and digitilized x-rays generated and analyzed by an image analysis program (NIH image) at the distal metaphysis. The proximal aspect of the tibiae from these animals are also scanned by quantitative computed tomography. In general, ovariectomy of test animals will cause a significant reduction in femur density compared to intact, vehicle treated controls.

Experiment [5] has as its system MCF-7 breast adenocarcinoma cells. Kind of experiment: MCF-7 Proliferation Assay (tritiated thymidine). The experiment is classed as cell-based. The note with it: Homo sapiens, MCF7; 48 hours, tritiated thymidine incorporation. The method, then:
MCF-7 breast adenocarcinoma cells (ATCC HTB 22) were maintained in MEM (minimal essential medium, phenol red-free, Sigma, St. Louis, Mo.) supplimented with 10% fetal bovine serum (FBS) (V/V), L-glutamine (2 mM), sodium pyruvate (1 mM), HEPES {(N-[2-hydroxyethyl]piperazine-N'-[2-ethanesulfonic acid]10 mM}, non-essential amino acids and bovine insulin (1 ug/mL) (maintenance medium). Ten days prior to assay, MCF-7 cells were switched to maintenance medium supplemented with 10% dextran coated charcoal stripped fetal bovine serum (DCC-FBS) assay medium) in place of 10% FBS to deplete internal stores of steroids. MCF-7 cells were removed from maintenance flasks using cell dissociation medium (Ca++/Mg++ free HBSS (phenol red-free) supplemented with 10 mM HEPES and 2 mM EDTA). Cells were washed twice with assay medium and adjusted to 80,000 cells/mL. Approximately 100 μL (8,000 cells) were added to flat-bottom microculture wells (Costar 3596) and incubated at 37° C. in a 5% CO2 humidified incubator for 48 hours to allow for cell adherence and equilibration after transfer. Serial dilutions of drugs or DMSO as a diluent control were prepared in assay medium and 50 μL transferred to triplicate microcultures followed by 50 μL assay medium for a final volume of 200 μL. After an additional 48 hours at 37° C. in a 5% CO2 humidified incubator, microcultures were pulsed with tritiated thymidine (1 uCi/well) for 4 hours. Cultures were terminated by freezing at -70° C. for 24 hours followed by thawing and harvesting of microcultures using a Skatron Semiautomatic Cell Harvester. Samples were counted by liquid scintillation using a Wallac BetaPlace β counter. Results in Table 2 below show the IC50 for certain compounds of the present invention.

Setting [6] is: Rattus norvegicus, po, 96 h, daily for 4 days, read-out: Uterine Weight (% increase vs. OVX).
[7] abbreviates: Rattus norvegicus, po, 96 h, daily for 4 days, read-out: Serum Cholesterol (% decrease vs. OVX).

2 molecules from US5728724A, “Benzothiophene compounds” (Eli Lilly and Company, priority 1996, dated 1998) can be followed below.

In the case of `C#C[C@]1(O)CC[C@H]2[C@@H]3CCc4cc(O)ccc4[C@H]3CC[C@@]21C` [EE2, 17α-ethynyl estradiol, reference compound], in experiment [1] (setting [6]), the change in vivo at 0.1 mg/kg is 86.3%. In addition, the “Uterine weight / uterine stimulation, result in words” value in experiment [1] (oral, EE2 at 0.1 mg/kg/day) is listed as “exerted a stimulatory action on the uterus so that EE2 uterine weight was substantially greater than the uterine weight of ovariectomized test animals”. Besides, in experiment [2] (0.1 mg/kg), the “Uterine EPO (V. max)” value worked out at 116.4. In experiment [3] (setting [7]), the inhibition in vivo at 0.1 mg/kg came out at 81.4%. Besides, the “Serum cholesterol, result in words” value in experiment [3] (oral, EE2 at 0.1 mg/kg/day) is recorded as “caused a decrease in serum cholesterol”. For the same molecule, the “Prevention of bone loss after ovariectomy, result in words” value in experiment [4] is “usually prevents this loss”.

For the molecule `O=C(c1ccc(OCCN2CCCCC2)cc1)c1c(Cc2ccc(O)cc2)sc2cc(O)ccc12` [Example 11, [2-(4-Hydroxyphenyl)methyl-6-hydroxybenzothien-3-yl][4-[2-(1-piperdinyl)ethoxy]phenyl]methanone], the change in vivo at 0.01 mg/kg in experiment [1] (Rattus norvegicus, po, 96 h, 0.01 mg/kg, daily for 4 days, read-out: Uterine Weight (% increase vs. OVX)) is 77.9%. The change in vivo at 0.1 mg/kg in experiment [1] (setting [6]) was determined as 80.5%. Moreover, the change in vivo at 1 mg/kg in experiment [1] (Rattus norvegicus, po, 96 h, 1.0 mg/kg, daily for 4 days, read-out: Uterine Weight (% increase vs. OVX)) stood at 44.6%. For the same molecule, the change in vivo at 10 mg/kg in experiment [1] (Rattus norvegicus, po, 96 h, 10.0 mg/kg, daily for 4 days, read-out: Uterine Weight (% increase vs. OVX)) was found to be 46.9%. The “Uterine EPO (V. max)” value in experiment [2] (0.01 mg/kg) stood at 33.0; in experiment [2] (0.1 mg/kg), 16.5; in experiment [2] (1.0 mg/kg), 18.9; in experiment [2] (10.0 mg/kg), 40.5. The inhibition in vivo at 0.01 mg/kg in experiment [3] (Rattus norvegicus, po, 96 h, 0.01 mg/kg, daily for 4 days, read-out: Serum Cholesterol (% decrease vs. OVX)) was determined as 41%. Moreover, in experiment [3] (setting [7]), the inhibition in vivo at 0.1 mg/kg worked out at 43%. Moreover, the inhibition in vivo at 1 mg/kg in experiment [3] (Rattus norvegicus, po, 96 h, 1.0 mg/kg, daily for 4 days, read-out: Serum Cholesterol (% decrease vs. OVX)) is 35.3%. For the same molecule, the inhibition in vivo at 10 mg/kg in experiment [3] (Rattus norvegicus, po, 96 h, 10.0 mg/kg, daily for 4 days, read-out: Serum Cholesterol (% decrease vs. OVX)) worked out at 68.3%. Further, the half-maximal inhibitory concentration (IC50) (as a rule, the concentration that gives 50% inhibition) in experiment [5] is 5 nM.
